Source: US20070172933A1, “Thermally stable amidases” (priority 2003, published 2007)
Read-outs that look alike come from different tables or passages of the source.

Legend:
amidase [1] = assay: Substrate specificity of the isolated amidase (hydrolysis assay); assay type: biochemical, Pseudonocardia thermophila
Description: (§1) To carry out the hydrolysis assay, where not mentioned otherwise, use was made of a 5 mM benzamide solution in 500 μl of a 60 mM K-Na phosphate buffer, pH 7.2. The enzymatic reaction proceeded for one hour at 70° C. with addition of 5 μg of the enzyme. The reaction was stopped by cooling the reaction solution on ice. […] One unit (U) of amidase activity is defined as the amount of enzyme which catalyzes the formation of 1 μmol of benzoic acid per minute.
The substrate specificity of the amidase was tested at three different temperatures taking into account the substrate used in each case. For hydrolysis of amino acid amides, the reaction mixture was reacted for 3 h at 30° C., in the case of the aliphatic and cyclic amides 1 h at 50° C., and for aromatic amide substrates 1 h at 70° C. The enzymatic activity was then determined as described above. The control used was each batch without enzyme.

amidase [2] = assay: Effect of metals and inhibitors (reagents and ions) on amidase activity, benzamide hydrolysis; assay type: biochemical, Pseudonocardia thermophila; conditions: for Amidase activity in %: reagent 1 mM, preincubated 1 h at 22° C., benzamide, 1 h at 70° C.
Description: as §1
To study the effect of certain reagents and ions on amidase activity, a solution containing 5 μg of amidase and the reagent or ion was preincubated for 1 h at 22° C. in 50 mM phosphate buffer. A 5 mM solution of benzamide in 50 mM phosphate buffer was then added until the end concentration of the reagent in the reaction batch was 1 mM. The reaction was performed for 1 h at 70° C. The catalytic activity was determined as described above.

amidase [3] = assay: Enantioselectivity of the isolated amidase, chiral HPLC; assay type: biochemical, Pseudonocardia thermophila; conditions: 70° C.
Description: For this, 10 μg of the purified amidase were incubated with a 5 mM racemic 2-phenylpropionamide solution for 3 h at 70° C., the end volume of the reaction batch being 500 μl. At 30-minute intervals, samples were taken from the reaction batch and analyzed by an HPLC measurement.
The product determination and quantification of the R-and S-stereoisomers of the 2-phenylpropionamide were determined by injecting defined amounts of the corresponding pure substances as standard. The enantiomeric excess (ee) was calculated on the basis of the peak area ratio obtained by the chirar HPLC measurement (ee^p=(S−R)/(S+R); ee^p (%)=(S−R)/(S+R) ×100; where p=product).
For the HPLC measurements, a chiral Chirobiotic T column (Astec, Whippany, USA) was used. The solvent used was ethanol and 20 mM potassium phosphate buffer, pH 7.2, having a volumetric ratio of 20:80. The elution was performed at room temperature using a flow rate of 0.8 ml min^−1. Detection was performed at a wavelength of 210 nm. The amfmonia concentration was studied using the phenol hypochloride method using the ammonia kit Spectroquant 114752 (Merck, Germany), the amount of ammonia released being determined spectrometrically using ammonium chloride as standard.

[4] = assay type: physicochemical, Pseudonocardia thermophila; conditions: pH 7.2
Description: In addition, the temperature stability of the enzymes was studied between 50° C. and 80° C. over a relatively long period. […] (middle curve, FIG. 5).

[5] = Hydrolysis assay, specific activity of the purified amidase; assay type: biochemical, Pseudonocardia thermophila; conditions: benzamide as substrate, after purification
Description: To carry out the hydrolysis assay, where not mentioned otherwise, use was made of a 5 mM benzamide solution in 500 μl of a 60 mM K-Na phosphate buffer, pH 7.2. The enzymatic reaction proceeded for one hour at 70° C. with addition of 5 μg of the enzyme. The reaction was stopped by cooling the reaction solution on ice. The concentration of the products obtained enzymatically (benzoic acid and ammonia) was determined by means of HPLC and spectrometrically, using the ammonia kit Spectroquant 114752 (Merck, Germany). One unit (U) of amidase activity is defined as the amount of enzyme which catalyzes the formation of 1 μmol of benzoic acid per minute.

[6] = Determination of the isoelectric point by isoelectric focusing; assay type: physicochemical, Pseudonocardia thermophila
Description: The isoelectric point was determined by means of isoelectric focusing using a Novex polyacrylamide gel (pH .3-10) and using a Novex electrophoresis chamber in accordance with the manufacturer's instructions (Novex, Invitrogen, Netherlands). The isoelectric point of the purified amidase was determined at pH 4.2.

[7] = Aliphatic amides, 1 h at 50° C.
[8] = Amino acid amides, 3 h at 30° C.
[9] = Heterocycles, temperature for this group not stated clearly

`NC(=O)CCCCC(N)=O` [adipamide] showed a Specific activity (amidase [1]; [7]) of 12.0 µmol/min/mg.

Work on `NC(=O)CC(N)=O` [malonamide] yielded a Specific activity (amidase [1]; [7]) of 7.4 µmol/min/mg.

With `[Mg+2]` [Mg^2+] the “Amidase activity in %” value (amidase [2]) was 90%.

With `O=C(O)CN(CCN(CC(=O)O)CC(=O)O)CC(=O)O` [EDTA] the “sensitivity of the amidases to the reagent (in words)” value (from here on “sensitivity of the amidases”) (amidase [2]) was “insensitive” and the “Amidase activity in %” value (amidase [2]) was 100%.

With `CSCC[C@H](N)C(N)=O` [L-methioninamide] the Specific activity (amidase [1]; [8]) was 14.4 µmol/min/mg.

`CSCCC(O)C(N)=O` (stereo not drawn) [2-hydroxy-4-(methylthio)butyramide] showed a Specific activity (amidase [1]; [8]) of 5.7 µmol/min/mg.

With `NC(=O)c1cccnc1` [nicotinamide] the Specific activity (amidase [1]; [9]) was 11.6 µmol/min/mg.

For `CC(C(N)=O)c1ccccc1` (stereo not drawn) [2-phenylpropionamide], the conversion (amidase [3]; 5 mM racemic substrate, after 60 minutes) was 50%, the “enantiomeric excess ee^p” value (amidase [3]; 5 mM racemic substrate, after 60 minutes, S-enantiomer product) was “greater than 95%” and the “enantioselectivity of the purified amidase for the substrate” value (amidase [3]; racemic substrate) was “highly S-selective”. It also gave a Specific activity (amidase [1]; Aromatic amides, 1 h at 70° C.) of 15.8 µmol/min/mg.

For `NC(=O)c1ccccc1N` [2-aminobenzamide], the Specific activity (amidase [1]; Aromatic amides, 1 h at 70° C.) was 3.4 µmol/min/mg.

In the case of `NC(=O)[C@@H]1CCCN1` [L-prolinamide], the Specific activity (amidase [1]; [8]) is reported as 13.0 µmol/min/mg.

In the case of `NC(=O)CI` [iodoacetamide], the “Amidase activity in %” value (amidase [2]) is reported as 90%.

With `CC(C)C(N)=O` [isobutyramide] the Specific activity (amidase [1]; [7]) was 13.5 µmol/min/mg.

With `NC(=O)c1ccc(N)cc1` [4-aminobenzamide] the Specific activity (amidase [1]; Aromatic amides, 1 h at 70° C.) was 6.5 µmol/min/mg.

For `[Mn+2]` [Mn^2+], the “Amidase activity in %” value (amidase [2]) was 98%.

Work on `CC(C)C[C@H](N)C(N)=O` [L-leucinamide] yielded a Specific activity (amidase [1]; [8]) of 10.8 µmol/min/mg.

In the case of `CC(C)[C@H](N)C(N)=O` [L-valinamide], the Specific activity (amidase [1]; [8]) is reported as 13.0 µmol/min/mg.

Molecule `NC(N)=O` [urea] has a Specific activity (amidase [1]; [7]) of 17.5 µmol/min/mg.

With m-tolylamide the Specific activity (amidase [1]) was 12.7 µmol/min/mg.

With `O[C@@H](CS)[C@@H](O)CS` [DTT] the “sensitivity of the amidases” value (amidase [2]) was “increased” and the “Amidase activity in %” value (amidase [2]) was 120%.

For `C=C(C)C(N)=O` [methacrylamide], the Specific activity (amidase [1]; [7]) was 23.5 µmol/min/mg.

In the case of `NC(=O)c1cnccn1` [pyrazinamide], the Specific activity (amidase [1]; [9]) is reported as 11.2 µmol/min/mg.

For `[Ni+2]` [Ni^2+], the “Amidase activity in %” value (amidase [2]) was 42%.

Molecule p-tolylamide has a Specific activity (amidase [1]; Aromatic amides, 1 h at 70° C.) of 13.1 µmol/min/mg.

For Triton X-100, the “sensitivity of the amidases” value (amidase [2]) was “insensitive” and the “Amidase activity in %” value (amidase [2]) was 100%.

With `CCCCCC(N)=O` [hexanoamide] the Specific activity (amidase [1]; [7]) was 9.3 µmol/min/mg.

With `O=C(O)CI` [iodoacetate] the “Amidase activity in %” value (amidase [2]) was 22%.

`NC(=O)CCC(N)=O` [succinamide] showed a Specific activity (amidase [1]; [7]) of 4.0 µmol/min/mg.

For `CC(C)(C)C(N)=O` [pivalamide], the Specific activity (amidase [1]; [7]) was 14.9 µmol/min/mg.

In the case of `[Cu+2]` [Cu^2+], the “Amidase activity in %” value (amidase [2]) is reported as 26%.

In the case of `[Ba+2]` [Ba^2+], the “Amidase activity in %” value (amidase [2]) is reported as 87%.

For `NC(=O)Cc1c[nH]c2ccccc12` [3-indolylacetamide], the Specific activity (amidase [1]; Aromatic amides, 1 h at 70° C.) was 7.56 µmol/min/mg.

For `NC(=O)c1ccncc1` [isonicotinamide], the Specific activity (amidase [1]; [9]) was 7.1 µmol/min/mg.

Work on `NC=O` [formamide] yielded a Specific activity (amidase [1]; [7]) of 9.2 µmol/min/mg.

With `NC(=O)c1ccccc1O` [o-hydroxybenzamide] the Specific activity (amidase [1]; Aromatic amides, 1 h at 70° C.) was 7.4 µmol/min/mg.

With `[Ca+2]` [Ca^2+] the “Amidase activity in %” value (amidase [2]) was 85%.

`CC(C)(C)[C@H](N)C(N)=O` [L-tert-leucinamide] showed a Specific activity (amidase [1]; [8]) of 0.08 µmol/min/mg.

With `NC(=O)[C@@H](N)Cc1c[nH]c2ccccc12` [L-tryptophanamide] the Specific activity (amidase [1]; [8]) was 10.3 µmol/min/mg.

For `CCC(N)=O` [propionamide], the Specific activity (amidase [1]; [7]) was 25.4 µmol/min/mg.

Work on `CC(O)C(N)=O` (racemic) [DL-lactamide] yielded a Specific activity (amidase [1]; [7]) of 18.9 µmol/min/mg.

For `NC(=O)c1ccccc1` [benzamide], the Specific activity (amidase [1]; Aromatic amides, 1 h at 70° C.) was 19.4 µmol/min/mg.

With `[Zn+2]` [Zn^2+] the “Amidase activity in %” value (amidase [2]) was 93%.

For `[Co+2]` [Co^2+], the “Amidase activity in %” value (amidase [2]) was 0%.

Work on `C[C@H](N)C(N)=O` [L-alaninamide] yielded a Specific activity (amidase [1]; [8]) of 10.5 µmol/min/mg.

For `CC(N)=O` [acetamide], the Specific activity (amidase [1]; [7]) was 15.7 µmol/min/mg.

In the case of `CCCCCCCCCCCCOS(=O)(=O)[O-].[Na+]` [SDS], the “sensitivity of the amidases” value (amidase [2]) is reported as “insensitive” and the “Amidase activity in %” value (amidase [2]) is reported as 100%.

B1: amidase: thermally stable amidase purified from Pseudonocardia thermophila (DSMZ 43832); SEQ ID No. 1, 2, 3 (protein, listed as Pseudonocardia thermophila)
chain 1: IHMPDPDAV
chain 2: DGLPVGLMIVGKHF
chain 3: MIHMPDPDAVARMAAEGRFGIPVVVICRTYHDLGHRPARLVEQGRRAVRGGGPHPAAALVDPPRRRGRQARRVGGADLDHRNLGGAARRPHGRGQDNVAVAGVPMMNGSRTLEGFVPAEDATVVSRLLAAGATIAGKSVCEDLCFSGGSHTSKPGTVHNPWDMSRSAGGSSSGSGALVAAGEVDMAIGGDQGGSIRIPSAYCGTVGHKPTHGLVPYTGGFPIEQSIDHLGPITRTVADAALMLSVIAGRDGLDPRQPDVVEVQDYVGALAESVSGLRIGVLQEGFGHPNSEPEVDDTVRAAVGTLREAGFTVEDVSVPWHLHATAIWDVLATEGGLWQMVEGNAYGMHWKGHYDPSLIAYYGRKWREDPAQFSETVKLVALAGRYALTTQYGRHYAMARNLAPKLVAAYDAALSNYDVLVMPTLPMRATVLPGPDAPVEEILARGLEMLANTAPFDVTGHPACSVPAGLADGLPVGLMIVGKHFDDATVLKVANAFEQAVGGFPTPAAZ
In the case of B1, the “enzymatic activity over time (thermal stability)” value [4] is reported as “decreases rapidly”, the “Substrate specificity (amides)” value (amidase [1]; Table 4, inventive amidase) is reported as “Al, Ar, Cy, As” and the Specific activity [5] is reported as 19.5 U/mg of protein. The isoelectric point ([6]; Novex polyacrylamide gel) was 4.2 pH and the “IEF point pH” value ([6]; Table 4, inventive amidase) was 4.2 pH.
